Assay results reported in BindingDB's records for doi:10.1016/j.cbi.2005.11.002 (Laboratoire De Pharmacologie-Toxicologie Inra, 2006).

Target: ATP-binding cassette sub-family C member 2 (Homo sapiens, UniProt Q92887)
Experiment: TP_TRANSPORTER: inhibition of ATPase activity in Sf9 cells (membrane vesicles)

ATP-binding cassette sub-family C member 2, sequence (Q92887 whole entry): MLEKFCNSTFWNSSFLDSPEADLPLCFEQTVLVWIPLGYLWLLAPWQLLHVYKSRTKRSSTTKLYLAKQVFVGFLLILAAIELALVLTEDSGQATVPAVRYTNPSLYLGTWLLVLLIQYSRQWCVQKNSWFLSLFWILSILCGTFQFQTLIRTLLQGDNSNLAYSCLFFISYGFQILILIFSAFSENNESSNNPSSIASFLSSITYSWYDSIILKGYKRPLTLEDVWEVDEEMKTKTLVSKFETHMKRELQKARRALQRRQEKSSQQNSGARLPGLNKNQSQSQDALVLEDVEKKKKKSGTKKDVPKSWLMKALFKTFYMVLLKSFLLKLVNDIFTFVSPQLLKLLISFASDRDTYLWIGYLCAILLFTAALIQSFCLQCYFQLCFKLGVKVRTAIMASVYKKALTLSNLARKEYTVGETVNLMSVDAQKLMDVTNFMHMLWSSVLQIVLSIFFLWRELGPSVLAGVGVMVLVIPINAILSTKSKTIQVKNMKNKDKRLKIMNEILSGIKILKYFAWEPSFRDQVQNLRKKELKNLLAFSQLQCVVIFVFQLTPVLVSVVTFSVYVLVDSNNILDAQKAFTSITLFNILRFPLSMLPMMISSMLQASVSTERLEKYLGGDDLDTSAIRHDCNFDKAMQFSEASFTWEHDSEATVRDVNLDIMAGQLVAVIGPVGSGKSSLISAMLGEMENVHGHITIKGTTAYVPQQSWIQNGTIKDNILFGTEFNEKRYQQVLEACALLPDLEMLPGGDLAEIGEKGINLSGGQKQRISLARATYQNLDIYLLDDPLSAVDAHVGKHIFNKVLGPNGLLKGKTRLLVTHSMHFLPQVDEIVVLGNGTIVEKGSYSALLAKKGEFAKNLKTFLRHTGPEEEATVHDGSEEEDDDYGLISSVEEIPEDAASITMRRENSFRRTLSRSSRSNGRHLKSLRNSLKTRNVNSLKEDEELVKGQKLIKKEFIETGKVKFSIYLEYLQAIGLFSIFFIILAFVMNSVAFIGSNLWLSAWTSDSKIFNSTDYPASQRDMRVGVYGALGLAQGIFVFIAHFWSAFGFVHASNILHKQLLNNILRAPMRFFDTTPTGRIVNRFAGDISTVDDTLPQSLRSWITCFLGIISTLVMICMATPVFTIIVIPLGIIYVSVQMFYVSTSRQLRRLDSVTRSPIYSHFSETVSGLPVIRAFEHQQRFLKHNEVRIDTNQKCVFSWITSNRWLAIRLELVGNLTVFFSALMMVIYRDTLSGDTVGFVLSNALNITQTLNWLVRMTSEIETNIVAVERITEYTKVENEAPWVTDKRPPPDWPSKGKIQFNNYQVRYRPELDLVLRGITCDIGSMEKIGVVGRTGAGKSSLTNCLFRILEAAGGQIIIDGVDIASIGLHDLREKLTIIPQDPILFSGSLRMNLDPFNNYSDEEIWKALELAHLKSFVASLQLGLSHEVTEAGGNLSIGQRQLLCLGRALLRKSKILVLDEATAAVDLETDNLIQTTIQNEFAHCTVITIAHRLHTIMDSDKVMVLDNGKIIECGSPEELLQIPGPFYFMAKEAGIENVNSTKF

IC50: 18 µM
Structure (SMILES): CC[C@H](C)[C@H]1O[C@]2(CC[C@@H]1C)C[C@@H]1C[C@@H](C/C=C(\C)[C@@H](O[C@H]3C[C@H](OC)[C@@H](O[C@H]4C[C@H](OC)[C@@H](O)[C@H](C)O4)[C@H](C)O3)[C@@H](C)/C=C/C=C3\CO[C@@H]4[C@H](O)C(C)=C[C@@H](C(=O)O1)[C@]34O)O2 [ABAMECTIN]
